In experiment [1] the target is T1, Matrix metalloproteinase-14 (Homo sapiens, UniProt P50281). The experiment is described as follows: SAR confirmation of uHTS hits for a small molecule inhibitors of MT1-MMP activation in a fluorescence assay. The format is functional.
Experiment [2] concerns the target T1, Matrix metalloproteinase-14. Briefly: Dose Response confirmation of uHTS hits for a small molecule inhibitors of MT1-MMP activation in a fluorescence assay set 1. The format is functional.
The target of a further experiment is Galanin receptor type 3 (Homo sapiens, UniProt O60755). Briefly: Fluorescence-based cell-based primary high throughput dose response assay to identify antagonists of the Galanin Receptor 3 (GalR3). In kind it is functional.
A further experiment is described as follows: cells. The format is functional, cell-based. Conditions: HEK-CNG.
Experiment [3] can be described thus: off-target signal loss in HeLa-CEM21 co-culture – HeLa F-luc CTL cells, cherry-picked, counter-screen for HIV-1 Env fusion inhibitor project, dose response (AID 652040).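 Further: potency for signal decrease marking cytotoxic or nonspecific inhibition.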 In kind it is functional, cell-based. On the technique in general: The purpose of a counterscreen is to sort out artefacts and off-target activity.
Experiment [4] can be described thus: HIV-1 AD8 envelope cell-cell fusion blockers – cherry-pick, dose response (AID 652062).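 Further: luciferase signal from cell-cell fusion driven by HIV-1 clade B AD8 Env; potency is for inhibitors of fusion seen as a drop in luminescence.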 The format is functional, cell-based.
In experiment [5] the target is T2, Microphthalmia-associated transcription factor (Homo sapiens, UniProt O75030).
T2 sequence (O75030 whole entry): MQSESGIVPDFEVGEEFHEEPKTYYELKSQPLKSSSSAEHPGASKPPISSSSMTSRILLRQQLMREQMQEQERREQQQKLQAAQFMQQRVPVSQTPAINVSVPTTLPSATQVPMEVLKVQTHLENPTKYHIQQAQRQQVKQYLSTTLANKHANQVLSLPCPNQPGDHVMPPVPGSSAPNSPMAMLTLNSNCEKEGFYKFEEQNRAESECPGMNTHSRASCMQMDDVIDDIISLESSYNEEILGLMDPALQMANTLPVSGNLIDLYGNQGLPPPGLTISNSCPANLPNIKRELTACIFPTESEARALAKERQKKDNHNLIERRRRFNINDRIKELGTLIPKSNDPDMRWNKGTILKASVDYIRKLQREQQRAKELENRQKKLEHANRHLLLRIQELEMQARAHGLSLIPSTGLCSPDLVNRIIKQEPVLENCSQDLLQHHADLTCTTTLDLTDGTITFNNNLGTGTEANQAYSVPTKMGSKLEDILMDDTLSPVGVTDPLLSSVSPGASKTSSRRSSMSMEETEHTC
The experiment is described as follows: reducers of TRPM1 reporter luminescence, concentration series – cell-based, SK-MEL-5, cherry-picked, set 3, MITF inhibitor project, dose response (AID 493073).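 Further: SK-MEL-5 melanoma cells with luciferase driven by the MITF target TRPM1 promoter.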 In kind it is functional.

Experiment [6] can be described thus: viability loss in CEM21 cells – cell-based, plate reader, dry powder, cytotoxicity control, dose response (AID 687026). The format is functional.
Experiment [7] is described as follows: blockers of HIV-1 envelope-mediated cell-cell fusion – cherry-pick, dose response (AID 652057). The format is functional, cell-based.
The nature of experiment [8]: blockers of HIV-1 ZM109 envelope-driven cell-cell fusion – HeLa effector, CEM target cells, luciferase, cherry-pick, dose response (AID 652058).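 Further: luciferase signal from HIV-1 Env mediated cell-cell fusion of effector and target cells.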 In kind it is functional, cell-based.
A short description of experiment [9]: luciferase signal loss, tTA control fusion, HeLa F-luc tTA cells, dry powder, counter-screen for HIV Env fusion inhibitor project, dose response (AID 687021). The format is functional, cell-based.
The nature of experiment [10]: inhibition of Env-driven cell fusion – HIV entry, plate reader, dry powder, dose response (AID 687023). The format is functional, cell-based.
The target of another experiment is Mu-type opioid receptor (Homo sapiens, UniProt P35372). In kind it is functional, cell-based.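 Further: U2OS cells with beta-arrestin recruitment to OPRM1 by beta-gal complementation.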
Experiment [11] addresses 5-hydroxytryptamine receptor 2A (Mus musculus, UniProt P35363). The format is functional, cell-based.
Experiment [12] has as its target NAD-dependent protein deacylase sirtuin-5, mitochondrial (Homo sapiens, UniProt Q9NXA8). The experiment is described as follows: blockers of sirtuin-5 peptide desuccinylation – biochemical, fluorescence imaging, cherry-pick, set 6, dose response (AID 720597).
A short description of experiment [13]: intracellular Trypanosoma cruzi inhibitors in host cells – cell-based, plate reader, cherry-pick samples, set 3, dose response (AID 651818).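 Further: compounds incubated with infected cells for about four days.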 The format is functional.
Experiment [14] in a line: African trypanosome bloodstream form growth inhibition – STIB900 strain, plate reader, cherry pick, dose response (AID 651893). The format is functional, cell-based, Trypanosoma brucei rhodesiense. The note with it: Trypanosoma brucei.
The nature of experiment [15]: antileishmanial activity on axenic amastigotes – plate reader, cherry pick, dose response (AID 651891). In kind it is functional, cell-based. Conditions: Leishmania donovani.
The nature of experiment [16]: Inhibition of Plasmodium falciparum NF54 Measured in Cell-Based System Using Plate Reader - 2138-11_Inhibitor_Dose_CherryPick_Activity. In kind it is functional.
A short description of experiment [17]: L6 myocyte viability loss – cell-based, plate reader, cherry-pick, cytotoxicity control, dose response (AID 651896). The format is functional.
A short description of experiment [18]: Inhibition of T. cruzi Tulahuen strain amastigotes in L-6 muscle cells Measured in Cell-Based and Microorganism Combination System Using Plate Reader - 2138-03_Inhibitor_Dose_CherryPick_Activity. In kind it is functional. The note with it: Rattus norvegicus, L6.
The target in experiment [19] is Botulinum neurotoxin type F (Clostridium botulinum, UniProt P30996). Briefly: High-throughput multiplex microsphere dose response for inhibitors of toxin protease, specifically Botulinum neurotoxin light chain F protease, compounds from Cherry Pick 02. The format is functional. The note with it: read-out: EC50_MICROM.
The next experiment addresses Lethal factor (Bacillus anthracis, UniProt P15917). The experiment is described as follows: High-throughput multiplex microsphere dose response for inhibitors of toxin protease, specifically Lethal Factor protease, compounds from Cherry Pick 02. The format is functional. The note with it: read-out: EC50_MICROM.
Experiment [20] in a line: viability loss in HEK293T cells – cell-based, CellTiter-Glo luminescence, dry powder, set 6, cytotoxicity control, dose response (AID 651949). In kind it is functional. Conditions: HEK293.
Experiment [21] has as its target T3, Trace amine-associated receptor 1 (Homo sapiens, UniProt Q96RJ0).
T3 sequence (Q96RJ0 whole entry): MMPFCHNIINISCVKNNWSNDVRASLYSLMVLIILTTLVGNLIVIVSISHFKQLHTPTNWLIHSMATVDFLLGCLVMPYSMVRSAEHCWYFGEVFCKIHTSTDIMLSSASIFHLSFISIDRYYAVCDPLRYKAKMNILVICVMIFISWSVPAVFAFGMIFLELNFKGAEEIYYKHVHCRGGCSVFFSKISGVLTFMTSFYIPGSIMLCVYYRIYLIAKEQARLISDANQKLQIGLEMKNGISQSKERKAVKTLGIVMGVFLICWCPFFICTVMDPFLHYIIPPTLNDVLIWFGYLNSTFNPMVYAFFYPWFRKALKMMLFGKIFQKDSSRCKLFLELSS
Briefly: Fluorescence-based cell-based high throughput dose response assay to identify antagonists of the human trace amine associated receptor 1 (TAAR1). In kind it is functional.

A short description of experiment [22]: Counterscreen for antagonists of the human trace amine associated receptor 1 (hTAAR1): Fluorescence-based cell-based high throughput dose response assay to identify nonselective Ga16 antagonists. In kind it is functional.
The nature of experiment [23]: Counterscreen for […] of the human trace amine associated receptor 1 (TAAR1): Fluorescence-based cell-based high throughput dose response assay to identify nonselective Ga16 agonists. In kind it is functional.
Experiment [24] addresses T3, Trace amine-associated receptor 1. Briefly: Counterscreen for antagonists of the human trace amine associated receptor 1 (hTAAR1): Fluorescence-based cell-based high throughput dose response assay to identify TAAR1 Agonists. In kind it is functional.

Several values for one entry are separate records, joined by “and”; a condition that tells them apart may be missing. Identical values can stand only once. Activity calls are given as the source filed them. Some results are limits rather than exact numbers.

The values below come from ChEMBL document CHEMBL1201862, “PubChem BioAssay data set” (2004).

Galanin receptor type 3, sequence (O60755 whole entry): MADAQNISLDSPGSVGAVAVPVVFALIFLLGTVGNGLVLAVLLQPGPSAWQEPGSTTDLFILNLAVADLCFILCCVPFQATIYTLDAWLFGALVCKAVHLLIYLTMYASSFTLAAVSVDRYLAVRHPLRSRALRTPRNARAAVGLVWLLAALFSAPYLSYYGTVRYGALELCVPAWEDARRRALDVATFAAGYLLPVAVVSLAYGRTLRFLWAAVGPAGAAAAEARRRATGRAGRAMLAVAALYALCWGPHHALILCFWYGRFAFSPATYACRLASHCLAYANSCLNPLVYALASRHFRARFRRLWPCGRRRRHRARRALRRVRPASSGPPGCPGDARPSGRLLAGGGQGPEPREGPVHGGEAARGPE
Botulinum neurotoxin type F, sequence (P30996 1-436 limits assumed): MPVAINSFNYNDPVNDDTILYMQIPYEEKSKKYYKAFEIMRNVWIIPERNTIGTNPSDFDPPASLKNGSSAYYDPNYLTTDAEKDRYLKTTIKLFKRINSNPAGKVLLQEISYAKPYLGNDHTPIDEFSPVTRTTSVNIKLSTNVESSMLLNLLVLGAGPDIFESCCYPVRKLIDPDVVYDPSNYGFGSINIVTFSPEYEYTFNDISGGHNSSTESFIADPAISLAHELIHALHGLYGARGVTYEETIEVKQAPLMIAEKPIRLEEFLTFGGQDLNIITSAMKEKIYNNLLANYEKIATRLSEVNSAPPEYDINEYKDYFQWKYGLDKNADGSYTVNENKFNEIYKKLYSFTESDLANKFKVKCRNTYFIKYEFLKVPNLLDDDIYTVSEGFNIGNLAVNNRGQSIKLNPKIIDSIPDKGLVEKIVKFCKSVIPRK
Lethal factor, sequence (P15917 whole entry): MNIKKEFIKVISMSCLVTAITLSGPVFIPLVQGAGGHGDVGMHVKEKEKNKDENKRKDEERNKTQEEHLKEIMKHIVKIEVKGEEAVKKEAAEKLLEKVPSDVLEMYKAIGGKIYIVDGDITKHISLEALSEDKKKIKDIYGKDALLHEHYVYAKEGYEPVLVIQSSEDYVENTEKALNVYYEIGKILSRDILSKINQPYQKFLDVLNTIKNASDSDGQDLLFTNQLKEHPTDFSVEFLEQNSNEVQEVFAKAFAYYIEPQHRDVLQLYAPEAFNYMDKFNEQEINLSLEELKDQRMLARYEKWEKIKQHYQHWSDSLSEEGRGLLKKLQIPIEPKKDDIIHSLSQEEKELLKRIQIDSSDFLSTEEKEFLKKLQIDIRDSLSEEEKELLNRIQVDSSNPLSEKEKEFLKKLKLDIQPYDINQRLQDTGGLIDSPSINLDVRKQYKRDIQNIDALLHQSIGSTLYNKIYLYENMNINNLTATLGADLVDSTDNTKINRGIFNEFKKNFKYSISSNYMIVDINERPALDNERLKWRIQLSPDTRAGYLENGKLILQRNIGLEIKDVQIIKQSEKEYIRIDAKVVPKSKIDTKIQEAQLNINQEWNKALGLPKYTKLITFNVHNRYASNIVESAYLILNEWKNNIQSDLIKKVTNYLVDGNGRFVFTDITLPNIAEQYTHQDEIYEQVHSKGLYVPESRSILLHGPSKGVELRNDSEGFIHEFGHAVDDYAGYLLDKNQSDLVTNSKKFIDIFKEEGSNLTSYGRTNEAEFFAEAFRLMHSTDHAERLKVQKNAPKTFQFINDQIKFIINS
NAD-dependent protein deacylase sirtuin-5, mitochondrial, sequence (Q9NXA8 whole entry): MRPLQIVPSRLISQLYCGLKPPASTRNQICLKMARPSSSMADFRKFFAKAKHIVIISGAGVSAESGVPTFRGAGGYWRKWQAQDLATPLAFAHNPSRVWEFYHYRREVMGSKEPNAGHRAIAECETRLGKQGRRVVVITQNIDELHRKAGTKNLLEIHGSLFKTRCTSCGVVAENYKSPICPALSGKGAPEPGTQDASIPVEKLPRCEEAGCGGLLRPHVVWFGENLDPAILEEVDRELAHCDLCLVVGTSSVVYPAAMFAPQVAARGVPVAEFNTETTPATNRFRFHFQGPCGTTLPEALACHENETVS
5-hydroxytryptamine receptor 2A, sequence (P35363 whole entry): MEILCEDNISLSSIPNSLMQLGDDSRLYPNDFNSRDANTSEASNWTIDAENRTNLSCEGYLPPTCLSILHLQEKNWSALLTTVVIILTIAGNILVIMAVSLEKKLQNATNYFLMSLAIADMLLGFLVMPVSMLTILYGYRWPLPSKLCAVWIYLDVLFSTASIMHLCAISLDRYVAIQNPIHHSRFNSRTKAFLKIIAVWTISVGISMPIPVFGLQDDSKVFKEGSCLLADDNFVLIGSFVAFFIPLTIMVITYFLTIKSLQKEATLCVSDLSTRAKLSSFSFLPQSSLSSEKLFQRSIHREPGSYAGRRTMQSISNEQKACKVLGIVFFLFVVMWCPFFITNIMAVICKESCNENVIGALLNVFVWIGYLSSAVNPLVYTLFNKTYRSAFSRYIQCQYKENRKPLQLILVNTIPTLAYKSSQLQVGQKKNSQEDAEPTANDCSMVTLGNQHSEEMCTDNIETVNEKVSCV
Mu-type opioid receptor, sequence (P35372 whole entry): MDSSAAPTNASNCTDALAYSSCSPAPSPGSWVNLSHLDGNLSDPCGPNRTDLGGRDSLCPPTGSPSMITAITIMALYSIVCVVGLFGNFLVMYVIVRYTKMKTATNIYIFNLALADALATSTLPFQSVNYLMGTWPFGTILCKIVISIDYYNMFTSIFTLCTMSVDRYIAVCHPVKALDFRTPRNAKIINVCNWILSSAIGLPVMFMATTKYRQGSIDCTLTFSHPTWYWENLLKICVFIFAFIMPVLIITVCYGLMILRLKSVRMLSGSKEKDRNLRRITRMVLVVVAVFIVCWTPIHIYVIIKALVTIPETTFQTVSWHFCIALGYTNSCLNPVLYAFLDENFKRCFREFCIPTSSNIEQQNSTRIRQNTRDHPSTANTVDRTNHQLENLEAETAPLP

Usually IC50 stands for the concentration at which inhibition is half-maximal. Regarding `COc1ccc(C)cc1Nc1nc(-c2c(C)[nH]c3ccccc23)cs1`, the IC50 was > 80 µM (inactive) in experiment [1] and 22.1 µM (inactive) in experiment [2].
On to `Cc1nn(C)c(Nc2ccc(Br)cc2)c1Br`, for which the IC50 on Galanin receptor type 3 is 0.155 µM (active). Moreover, in the experiment “cells”, the EC50 was > 29.9 µM (inactive).
What is called AC50 is the concentration giving half of the maximal activity seen. In the case of `Oc1ccc(CNc2ccccc2F)c2cccnc12`, the AC50 was 36 µM (active) in experiment [3]; 9.33 µM (active) in [4]; 15.1 µM (active) in experiment [5]; 50.8 µM (active) and 64.1 µM (active) in experiment [6]; 5.19 µM (active) in experiment [7]; 1.58 µM (active) in experiment [8]. For the same compound, the AC50 in [9] and in experiment [10] was > 70 µM (inactive) each time.
On to `FC(F)(F)c1cccc(CN2CCN(c3ncccn3)CC2)c1`, for which the EC50 on Mu-type opioid receptor is 92.4 µM (inactive); in experiment [11], 4.16 µM (active).
Regarding `CCCNC(=O)N1[C@@H](CO)[C@H](c2ccccc2)C12CN(C(=O)CC1CC1)C2`, the AC50 in experiment [12] was 24.6 µM (active).
With `COc1ccc(CN(C)C[C@H]2Oc3c(NC(=O)c4ccncc4)cccc3C(=O)N([C@H](C)CO)C[C@@H]2C)cc1`, the AC50 in experiment [13] was 0.206 µM (active). The IC50 is 20.2 µM (inactive) in experiment [14]; > 100 µM (inactive) in experiment [15]; 7.39 µM (inactive) in experiment [16]; > 100 µM (inactive) in experiment [17]; 7.39 µM (inactive) in [18].
In the case of `O=C(COC(=O)c1cncc(Br)c1)NC12CC3CC(CC(C3)C1)C2`, the EC50 was > 20 µM (inactive) in experiment [19] and 11.5 µM (active) on Lethal factor.
For the compound `c1ccc(CSc2nnc(C3CCCC3)o2)cc1`, in experiment [20], the AC50 was > 52 µM (inactive).
On to `COc1ccc(-c2cc(C(=O)NCC(C)C)no2)cc1`, for which the IC50 in experiment [21] and in [22] was > 29.9 µM (inactive) in each case. For the same compound, the EC50 in [23] and in [24] was > 29.9 µM (inactive) throughout.
